Data: the NIST ThermoML archive (doi:10.1021/acs.jced.7b00106)
Values joined by “and” are separate entries in the source; they are usually repeats but may differ in a detail not shown here. Identical values can stand only once.

Conditions: Fluid (supercritical or subcritical phases), Hot wire method

FC(F)(F)/C=C/Cl [(E)-1-chloro-3,3,3-trifluoroprop-1-ene]
Conditions	thermal conductivity
452.54 K, 1672 kPa	0.02352 W/m/K
452.58 K, 8954 kPa	0.0518 W/m/K
452.58 K, 8958 kPa	0.05186 W/m/K
452.61 K, 12577 kPa	0.05553 W/m/K
452.61 K, 12585 kPa	0.05555 W/m/K
452.61 K, 18524 kPa	0.06031 W/m/K
452.63 K, 18535 kPa	0.06055 W/m/K
452.65 K, 5576 kPa	0.04794 W/m/K
452.65 K, 5578 kPa	0.04801 W/m/K
452.67 K, 7732 kPa	0.0504 W/m/K
452.67 K, 7733 kPa	0.05035 W/m/K
452.68 K, 10507 kPa	0.05353 W/m/K
452.68 K, 10512 kPa	0.05353 W/m/K
452.69 K, 6081 kPa	0.04841 W/m/K
452.69 K, 7300 kPa	0.05001 W/m/K
452.69 K, 7301 kPa	0.04996 W/m/K
452.69 K, 15244 kPa	0.05785 W/m/K
452.69 K, 22569 kPa	0.06311 W/m/K
452.69 K, 22574 kPa	0.06307 W/m/K
452.7 K, 6080 kPa	0.04844 W/m/K
452.71 K, 6780 kPa	0.04921 W/m/K
452.72 K, 6782 kPa	0.04926 W/m/K
452.75 K, 990 kPa	0.02344 W/m/K
452.76 K, 988 kPa	0.02344 W/m/K
452.77 K, 8956 kPa	0.05187 W/m/K and 0.05189 W/m/K
452.79 K, 18524 kPa	0.0603 W/m/K
452.79 K, 18533 kPa	0.06034 W/m/K
452.8 K, 12582 kPa	0.05559 W/m/K
452.86 K, 7730 kPa	0.05046 W/m/K
452.86 K, 7733 kPa	0.05047 W/m/K
452.87 K, 10511 kPa	0.05358 W/m/K
452.87 K, 22562 kPa	0.06294 W/m/K
452.88 K, 10507 kPa	0.05361 W/m/K
452.88 K, 15241 kPa	0.05786 W/m/K
452.88 K, 15242 kPa	0.05782 W/m/K
452.88 K, 22559 kPa	0.06307 W/m/K
452.89 K, 6080 kPa	0.04865 W/m/K
452.89 K, 6081 kPa	0.04866 W/m/K
452.9 K, 7299 kPa	0.0501 W/m/K
452.9 K, 7305 kPa	0.05013 W/m/K
452.91 K, 6780 kPa	0.04939 W/m/K
452.91 K, 6781 kPa	0.04936 W/m/K
452.96 K, 8959 kPa	0.05193 W/m/K
452.97 K, 8955 kPa	0.0519 W/m/K
452.98 K, 18519 kPa	0.06033 W/m/K
452.99 K, 12573 kPa	0.05553 W/m/K
452.99 K, 12587 kPa	0.05557 W/m/K
453.06 K, 7731 kPa	0.05059 W/m/K
453.06 K, 22554 kPa	0.06303 W/m/K
453.06 K, 22568 kPa	0.06306 W/m/K
453.07 K, 7733 kPa	0.05056 W/m/K
453.07 K, 10506 kPa	0.05359 W/m/K
453.07 K, 15242 kPa	0.05784 W/m/K
453.08 K, 10511 kPa	0.05377 W/m/K
453.08 K, 15250 kPa	0.05787 W/m/K
453.1 K, 6079 kPa	0.04859 W/m/K
453.12 K, 6779 kPa	0.0495 W/m/K
453.12 K, 6780 kPa	0.04953 W/m/K
453.17 K, 18517 kPa	0.06031 W/m/K
453.17 K, 18518 kPa	0.06033 W/m/K
453.18 K, 8956 kPa	0.05196 W/m/K
453.18 K, 8959 kPa	0.05204 W/m/K
453.2 K, 12578 kPa	0.05564 W/m/K
453.2 K, 12584 kPa	0.05564 W/m/K
453.27 K, 7731 kPa	0.05062 W/m/K
453.27 K, 10508 kPa	0.05365 W/m/K
453.28 K, 7728 kPa	0.05065 W/m/K
453.28 K, 10506 kPa	0.05366 W/m/K
453.28 K, 15236 kPa	0.05778 W/m/K
453.28 K, 15246 kPa	0.05788 W/m/K
453.33 K, 6776 kPa	0.0497 W/m/K
453.33 K, 6780 kPa	0.04971 W/m/K
453.39 K, 8959 kPa	0.05209 W/m/K
